Assay results as given in patent publication US20110257013A1, “METHOD FOR CONTROLLING FLOWERING TIME OF PLANT” (SUMITOMO CHEMICAL COMPANY, LIMITED, priority 2008, published 2011).

System: recombinant Arabidopsis thaliana
Experiment: Flowering induction in recombinant Arabidopsis thaliana
Type: in vivo
Details: Arabidopsis with vector (e); 50 μM CuSO4 medium for six hours; observed five days after treatment; compared to non-inducible group
Experimental: The vector (e) prepared in Example 1 was introduced into Agrobacterium (Agrobacterium tumefaciens strain C58C1). The resulting Agrobacterium was cultured in a LB agar medium (0.5% yeast extract, 1.0% bactotrypton, 0.5% saline, 1% agar) containing 50 mg/L kanamycin, 100 mg/L ampicillin, and 100 mg/L rifampicin, and a drug-resistant colony was selected to obtain recombinant Agrobacterium. Arabidopsis (Arabidopsis thaliana ecotype Columbia) was infected by the obtained recombinant Agrobacterium according to the method described in Model Plant Laboratory Manual (edited by Iwabuchi Masaki et al, 2000, Springer-Verlag Tokyo Co., Ltd., ISBN 4-431-70881-2 C3045) to introduce genes. After T1 seeds collected from the Arabidopsis subjected to gene introduction, the seeds were plated and grown on a modified MS agar medium (MS inorganic salts, B5 vitamin, 1% sucrose, 0.8% agar) containing 20 mg/L of Benlate, 200 mg/L of Claforan, and 25 mg/L kanamycin to select a plant individual resistant to kanamycin. The selected plant individual was transplanted to a pot in which culture soil was previously placed, and grown in an artificial weather chamber to obtain T2 seeds. […]

With O=S(=O)([O-])[O-].[Cu+2] [CuSO4] the flowering time was “flowering was induced earlier”.
